Common to all, as to experiment: MIC determination by in vitro antifungal assay
Test [1] has as its system Aspergillus fumigatus NRRL 163 (Q). The class given is cell-based. The note with it: Aspergillus fumigatus, NRRL163; strain Q = A. fumigatus NRRL 163; read-out: MIC. In outline:
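Broth microdilution following CLSI M27-A3/M38-A2 with minor modifications, in RPMI 1640 buffered to pH 7.0 with 0.165 M MOPS. Yeast inoculum came from an overnight YPD culture, set to OD600 0.12 (˜1×10^6 CFU/mL) and then diluted 1:100. Compounds were tested in two-fold dilutions at 0.06-31.3 μg/mL for 48 h at 35° C.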

The subject of test [2] is A. fumigatus NRRL 6113 (S). The class given is cell-based, Aspergillus fumigatus. The note with it: Aspergillus fumigatus, NRRL6113; strain S = A. fumigatus NRRL 6113; read-out: MIC. On the procedure: (§1) 10 mg/mL stock solutions of compounds 1a-9j were prepared in dimethyl sulfoxide (DMSO) and were stored at −20° C. in the dark. The antifungal agent amphotericin B (AmB) was purchased from VWR (Radnor PA, USA). AmB was dissolved in DMSO at a final concentration of 5 mg/mL and was stored at −20° C., protected from light. Candida albicans American Type Culture Collection (ATCC) 10231 (strain A), C. albicans ATCC 64124 (B), and C. albicans ATCC MYA-2876 (C) were obtained from Utah State University. C. albicans ATCC 90819 (D), C. albicans ATCC MYA-2310 (E), C. albicans ATCC MYA-1237 (F), C. albicans ATCC MYA-1003 (G), Candida glabrata ATCC 2001 (H), Candida krusei ATCC 6258 (I), Candida parapsilosis ATCC 22019 (J), Cryptococcus neoformans ATCC MYA-895 (M), Aspergillus terreus ATCC MYA-3633 (N), and Aspergillus flavus ATCC MYA-3631 (0) were obtained from the American Type Culture Collection (ATCC; Manassas, VA, USA). Aspergillus nidulans ATCC 38163 (P) was obtained from University of Kentucky. Clinically derived Aspergillus fumigatus NRRL 163 (Q), A. fumigatus NRRL 5109 (R), and A. fumigatus NRRL 6113 (S) were obtained from Northern Regional Research Laboratory (NRRL). Candida auris 384 (K), C. auris 390 (L), and fungal strains 381-400 (including 10 C. auris (AR Bank #381-390), 3 Candida duobushaemulonii (AR Bank #391, AR Bank #392, and AR Bank #394), 2 Candida haemulonii (AR Bank #393 and AR Bank #395), 1 Kodameae ohmeri (AR Bank #396), 1 C. krusei (AR Bank #397), 1 Candida lusitaniae (AR Bank #398), and 2 Saccharomyces cerevisiae strains (AR Bank #399 and AR Bank #400)) were part of a larger fungal library from the AR Bank maintained by the Centers for Disease Control and Prevention (CDC; Atlanta, GA, USA). Filamentous fungi and yeasts were cultivated at 35° C. in RPMI 1640 medium (with L-glutamine, without sodium bicarbonate, Sigma-Aldrich, St. Louis, MO) buffered to a pH of 7.0 with 0.165 M morpholinepropanesulfonic acid (MOPS) buffer (Sigma-Aldrich). For cytotoxicity assays, HepG2 and the mouse macrophage cell line J774A.1 were obtained from University of Kentucky. The human embryonic kidney cell line, HEK-293, was bought from the ATCC. Mammalian cells were grown in Dulbecco's Modified Eagle's Medium (DMEM) (from VWR) with 10% fetal bovine serum (FBS) (from VWR) and 1% Pen/Strep (from ATCC). Cell lines were cultured at 37° C. with 5% CO2 and passaged by trypsinization with 0.05% trypsin: 0.53 mM EDTA (from Sigma-Aldrich).
(§2) The MIC values of compounds 1a-9j against yeast cells (strains A-P and 381-400) were determined in 96-well plates as described in the CLSI documents M27-A3 and M38-A2 with minor modifications.^2 A single colony of freshly prepared yeast cells was used to inoculate 5 mL of yeast extract peptone dextrose (YPD) broth prior to incubation overnight with shaking at 200 rpm at 35° C. From the actively growing yeast culture, 100 µL were then transferred to 900 μL of RPMI 1640 medium and re-adjusted to achieve OD600 of 0.12 (˜1×10^6 CFU/mL). The cell suspension was further diluted to achieve 1:100 in RPMI 1640 medium. 100 μL of cells were added to the wells of a 96-well microtiter plates that contained 100 µL of the compound solution to obtain concentrations of 0.06-31.3 μg/mL of compounds 1a-9j or AmB prior to incubation for 48 h at 35° C.
(§3) Finally, the activity of these monohydrazides was explored against […] non-Candida strains: Cryptococcus neoformans ATCC MYA-895 (M), Aspergillus terreus ATCC MYA-3633 (N), Aspergillus flavus ATCC MYA-3631 (O), Aspergillus nidulans ATCC 38163 (P), Aspergillus fumigatus NRRL 163 (Q), A. fumigatus NRRL 5109 (R), and A. fumigatus NRRL 6113 (S) (Tables 1A and 1B). The double dilution method was used with concentrations ranging from 0.06 to 31.3 j·tg mL^−1 for monohydrazides 1a-9j, and the commercially available positive antifungal control amphotericin B (AmB).

Test [3] has as its system A. fumigatus NRRL 5109 (R). The class given is cell-based, Aspergillus fumigatus. The following applies: Aspergillus fumigatus, NRRL5109; strain R = A. fumigatus NRRL 5109; read-out: MIC. On the procedure:
as §1, §2, §3

We go through one compound from patent publication US20240425464A1, “Substituted Monohydrazides as Potent Antifungal Agents” (University of Kentucky Research Foundation, priority 2023, published 2024).

The MIC is the lowest concentration found to suppress growth.

Each structure is given as a SMILES string. Values after ≈ are worked out from the molar mass of the structure shown.

As for `COc1ccc(NNC(=O)c2nc(F)ccc2F)cc1` [Compound 8f], the MIC came to 31.3 µg/mL (≈ 112 µM) in test [1], 31.3 µg/mL (≈ 112 µM) in test [2] and 15.6 µg/mL (≈ 55.9 µM) in test [3].
